Measurements published in PubChem BioAssay AID248 (DTP/NCI, 2004).
Several values for one entry are separate records, joined by “and”; a condition that tells them apart may be missing. Identical values can stand only once. Inconclusive results and toxic doses are left out. No stated cut-off is given here; in the data, active means T/C of 150% or more; inactive means T/C below 125%.

Tested on: L1210 leukemia ip in BDF1 mice, survival T/C
Test: NCI In Vivo Anticancer Drug Screen. Data for tumor model L1210 Leukemia (intraperitoneal) in B6D2F1 (BDF1) mice
Details: endpoint: mean survival time, higher = longer survival
Outline: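 Mice bearing the transplanted tumor received compound or vehicle. Survival of the treated group was divided by that of the vehicle-treated control group to give the ratio.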

[1] = dose: 50.0 mg/kg/injection, schedule: Q04DX003 (ip), vehicle: saline
[2] = dose: 100.0 mg/kg/injection, schedule: Q04DX003 (ip), vehicle: saline
[3] = dose: 200.0 mg/kg/injection, schedule: Q04DX003 (ip), vehicle: saline
[4] = dose: 400.0 mg/kg/injection, schedule: Q04DX003 (ip), vehicle: saline
[5] = dose: 100.0 mg/kg/injection, schedule: Q04DX002 (ip), vehicle: Klucel (hydroxypropylcellulose) (HPC)
[6] = dose: 200.0 mg/kg/injection, schedule: Q04DX002 (ip), vehicle: Klucel (hydroxypropylcellulose) (HPC)
[7] = dose: 400.0 mg/kg/injection, schedule: Q04DX002 (ip), vehicle: Klucel (hydroxypropylcellulose) (HPC)
[8] = dose: 100.0 mg/kg/injection, schedule: Q01DX009 (ip), vehicle: Klucel (hydroxypropylcellulose) (HPC)
[9] = dose: 200.0 mg/kg/injection, schedule: Q01DX009 (ip), vehicle: Klucel (hydroxypropylcellulose) (HPC)
[10] = dose: 400.0 mg/kg/injection, schedule: Q04DX002 (ip), vehicle: saline with Tween-80

Measured: T/C

CCCCCCCCCCCCCCCC(=O)NOCc1cscn1
inactive: dose: 100.0 mg/kg/injection, schedule: Q01DX001 (ip), vehicle: other 104 % of control | dose: 100.0 mg/kg/injection, schedule: Q04DX003 (ip), vehicle: acetone 93 % of control | dose: 200.0 mg/kg/injection, schedule: Q01DX001 (ip), vehicle: other 94 % of control | dose: 200.0 mg/kg/injection, schedule: Q04DX003 (ip), vehicle: acetone 93 % of control | dose: 400.0 mg/kg/injection, schedule: Q01DX001 (ip), vehicle: other 98 % of control | dose: 400.0 mg/kg/injection, schedule: Q04DX003 (ip), vehicle: acetone 98 % of control

O=C(Nc1ccc(S(=O)(=O)F)cc1)/C(=C/c1ccc([N+](=O)[O-])cc1)CCc1ccccc1
inactive: dose: 100.0 mg/kg/injection, schedule: Q04DX003 (ip), vehicle: saline with Tween-80 105 % of control | dose: 200.0 mg/kg/injection, schedule: Q04DX003 (ip), vehicle: saline with Tween-80 97 % of control | dose: 400.0 mg/kg/injection, schedule: Q04DX003 (ip), vehicle: saline with Tween-80 94 % of control

COc1ccc2c(=O)cc(-c3ccccc3)[nH]c2c1
inactive: [1] 100 % of control | dose: 100.0 mg/kg/injection, schedule: Q01DX009 (ip), vehicle: other 122 % of control | [2] 106 % of control | dose: 200.0 mg/kg/injection, schedule: Q01DX009 (ip), vehicle: other 123 % of control | [3] 101 % of control | [4] 104 % of control

O=C(/C=C/c1ccc([N+](=O)[O-])s1)c1cccc([N+](=O)[O-])c1
inactive: [5] 91 % of control | [6] 100 % of control | [7] 100 % of control

O=C1c2cc(Cl)ccc2-c2ccc([N+](=O)[O-])cc21
inactive: dose: 100.0 mg/kg/injection, schedule: Q04DX003 (ip), vehicle: Klucel (hydroxypropylcellulose) (HPC) 100 % of control | dose: 200.0 mg/kg/injection, schedule: Q04DX003 (ip), vehicle: Klucel (hydroxypropylcellulose) (HPC) 97 % of control | dose: 400.0 mg/kg/injection, schedule: Q04DX003 (ip), vehicle: Klucel (hydroxypropylcellulose) (HPC) 106 % of control

Cc1cc(C)c(C#[N+][O-])c(C)c1
inactive: dose: 25.0 mg/kg/injection, schedule: Q04DX003 (ip), vehicle: saline with Tween-80 93 % of control | dose: 50.0 mg/kg/injection, schedule: Q04DX003 (ip), vehicle: saline with Tween-80 98 % of control

O=[N+]([O-])c1cc(S(=O)(=O)c2ccc(Cl)c([N+](=O)[O-])c2)ccc1Cl
inactive: dose: 25.0 mg/kg/injection, schedule: Q01DX009 (ip), vehicle: Klucel (hydroxypropylcellulose) (HPC) 92 % of control | dose: 50.0 mg/kg/injection, schedule: Q01DX009 (ip), vehicle: Klucel (hydroxypropylcellulose) (HPC) 92 % of control | [8] 90 % of control | [9] 92 % of control | dose: 400.0 mg/kg/injection, schedule: Q01DX009 (ip), vehicle: Klucel (hydroxypropylcellulose) (HPC) 87 % of control

OC(Cc1ccccc1)(c1ccccc1)C(O)(Cc1ccccc1)c1ccccc1 (stereo unspecified)
inactive: dose: 50.0 mg/kg/injection, schedule: Q01DX001 (ip), vehicle: saline 94 % of control | dose: 100.0 mg/kg/injection, schedule: Q01DX001 (ip), vehicle: saline 94 % of control | dose: 200.0 mg/kg/injection, schedule: Q01DX001 (ip), vehicle: saline 94 % of control | dose: 400.0 mg/kg/injection, schedule: Q01DX001 (ip), vehicle: saline 94 % of control

CC(=O)OCC(COC(C)=O)OC(C)=O
inactive: dose: 100.0 mg/kg/injection, schedule: Q04DX002 (ip), vehicle: other 98 % of control | dose: 200.0 mg/kg/injection, schedule: Q04DX002 (ip), vehicle: other 98 % of control | dose: 400.0 mg/kg/injection, schedule: Q04DX002 (ip), vehicle: other 103 % of control

O=S(=O)(OCCOS(=O)(=O)c1ccccc1)c1ccccc1
inactive: [5] 115 % of control | [6] 107 % of control | [7] 100 % of control

[C-]#[N+]C1(C)CC1(c1ccccc1)c1ccccc1 (stereo unspecified)
inactive: [1] 103 % of control | [2] 110 % of control | [3] 95 % of control

Nc1ccc(I)c(Cl)c1Cl
inactive: dose: 100.0 mg/kg/injection, schedule: Q01DX009 (ip), vehicle: saline with Tween-80 110 % of control | dose: 200.0 mg/kg/injection, schedule: Q01DX009 (ip), vehicle: saline with Tween-80 108 % of control | dose: 400.0 mg/kg/injection, schedule: Q01DX009 (ip), vehicle: saline with Tween-80 102 % of control

O=C(CCCCl)N1CCCC1
inactive: dose: 100.0 mg/kg/injection, schedule: Q04DX002 (ip), vehicle: saline 98 % of control | dose: 200.0 mg/kg/injection, schedule: Q04DX002 (ip), vehicle: saline 91 % of control | dose: 400.0 mg/kg/injection, schedule: Q04DX002 (ip), vehicle: saline 94 % of control

CC1CCC(C(C)C)C(OC(=O)c2c([N+](=O)[O-])ccc([N+](=O)[O-])c2Br)C1 (stereo unspecified)
inactive: [8] 105 % of control | [9] 100 % of control

CC1(C#N)CCC(CCc2ccccc2)C(=O)C1 (stereo unspecified)
inactive: dose: 75.0 mg/kg/injection, schedule: Q01DX001 (ip), vehicle: saline 109 % of control | dose: 75.0 mg/kg/injection, schedule: Q01DX009 (ip), vehicle: saline 99 % of control | dose: 150.0 mg/kg/injection, schedule: Q01DX001 (ip), vehicle: saline 95 % of control | dose: 150.0 mg/kg/injection, schedule: Q01DX009 (ip), vehicle: saline 94 % of control | dose: 300.0 mg/kg/injection, schedule: Q01DX001 (ip), vehicle: saline 92 % of control | dose: 300.0 mg/kg/injection, schedule: Q01DX009 (ip), vehicle: saline 96 % of control

O=C(Nc1ccc(Cl)cc1)Nc1cccc2nsnc12
inactive: dose: 100.0 mg/kg/injection, schedule: Q04DX002 (ip), vehicle: saline with Tween-80 97 % of control | dose: 200.0 mg/kg/injection, schedule: Q04DX002 (ip), vehicle: saline with Tween-80 93 % of control | [10] 90 % of control

COC(=O)c1cccc(Nc2ccccc2C(=O)O)c1
inactive: dose: 100.0 mg/kg/injection, schedule: Q01DX001 (ip), vehicle: Klucel (hydroxypropylcellulose) (HPC) 102 % of control | dose: 200.0 mg/kg/injection, schedule: Q01DX001 (ip), vehicle: Klucel (hydroxypropylcellulose) (HPC) 96 % of control | dose: 400.0 mg/kg/injection, schedule: Q01DX001 (ip), vehicle: Klucel (hydroxypropylcellulose) (HPC) 93 % of control

CC(Cc1ccccc1)NN (stereo unspecified)
inactive: dose: 3.9 mg/kg/injection, schedule: Q01DX009 (ip), vehicle: saline 93 % of control | dose: 7.81 mg/kg/injection, schedule: Q01DX009 (ip), vehicle: saline 96 % of control | dose: 15.62 mg/kg/injection, schedule: Q01DX009 (ip), vehicle: saline 93 % of control | dose: 15.62 mg/kg/injection, schedule: Q04DX003 (ip), vehicle: saline 107 % of control | dose: 31.25 mg/kg/injection, schedule: Q04DX003 (ip), vehicle: saline 98 % of control | dose: 62.5 mg/kg/injection, schedule: Q04DX003 (ip), vehicle: saline 104 % of control

COc1cc2ccc(CC3NCCc4cc5c(cc43)OCO5)cc2cc1OC (stereo unspecified)
inactive: dose: 100.0 mg/kg/injection, schedule: Q01DX009 (ip), vehicle: saline sonified 93 % of control | dose: 100.0 mg/kg/injection, schedule: Q04DX003 (ip), vehicle: saline sonified 88 % of control | dose: 200.0 mg/kg/injection, schedule: Q01DX009 (ip), vehicle: saline sonified 98 % of control | dose: 200.0 mg/kg/injection, schedule: Q04DX003 (ip), vehicle: saline sonified 88 % of control | dose: 400.0 mg/kg/injection, schedule: Q01DX009 (ip), vehicle: saline sonified 93 % of control | dose: 400.0 mg/kg/injection, schedule: Q04DX003 (ip), vehicle: saline sonified 95 % of control

Cc1ccc([Si](C)(C)C)cc1
inactive: dose: 25.6 mg/kg/injection, schedule: Q04DX002 (ip), vehicle: saline with Tween-80 90 % of control | dose: 64.0 mg/kg/injection, schedule: Q04DX002 (ip), vehicle: saline with Tween-80 104 % of control | dose: 160.0 mg/kg/injection, schedule: Q04DX002 (ip), vehicle: saline with Tween-80 90 % of control | [10] 90 % of control

CC(C)CC[NH-].CC(C)CC[NH-].[Cl][Pt+2][Cl]
inactive: [1] 100 % of control and 105 % of control | [2] 92 % of control and 105 % of control | [3] 103 % of control and 117 % of control | [4] 97 % of control and 88 % of control
